Holding throughout (format): biochemical
Assay [1] deals with T1, human CGT (ceramide galactosyltransferase), CHO/CGT lysate (Homo sapiens, UniProt Q16880).
T1 construct: Full-length human CGT cDNA was cloned into the BamH1/Xho1 site of pcDNA3.1 (+); expressed in transfected cells; host or cells: Chinese hamster ovary (CHO) cells; lysate prepared with M-PER
T1 sequence (Q16880 21-541): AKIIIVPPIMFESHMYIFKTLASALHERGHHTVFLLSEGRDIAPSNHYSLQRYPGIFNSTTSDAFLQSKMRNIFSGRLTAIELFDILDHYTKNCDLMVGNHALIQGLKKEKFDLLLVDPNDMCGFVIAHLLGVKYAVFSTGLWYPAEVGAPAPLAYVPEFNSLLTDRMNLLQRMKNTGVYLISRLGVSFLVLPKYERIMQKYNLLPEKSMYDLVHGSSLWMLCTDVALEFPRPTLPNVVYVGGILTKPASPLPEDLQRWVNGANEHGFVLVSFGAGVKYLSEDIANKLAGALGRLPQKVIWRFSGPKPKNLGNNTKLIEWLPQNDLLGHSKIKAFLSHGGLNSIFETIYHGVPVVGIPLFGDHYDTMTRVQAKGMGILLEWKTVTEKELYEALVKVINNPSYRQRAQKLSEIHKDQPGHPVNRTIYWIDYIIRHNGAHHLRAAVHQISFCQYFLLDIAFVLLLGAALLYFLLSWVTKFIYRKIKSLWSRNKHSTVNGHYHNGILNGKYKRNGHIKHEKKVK
The assay can be described thus: CGT enzyme assay, RapidFire/MS/MS readout (Table 1 ranges with one asterisk *). Particulars: RapidFire method (range with one asterisk *). The method, boiled down:
(§1)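 IC50s come from variable-slope dose-response fits of internal-standard-normalized C6-NBD-dihydro-galactosylceramide, measured by RapidFire/MS/MS (ESI negative). Reactions: 1 h, 37 °C, human CGT-expressing CHO lysate (4 μg), 0.001–50 μM compound, 10 μM NBD-dihydro-ceramide, 17.5 μM UDP-galactose, 0.5% DMSO, pH 7.2; 0.01% Tween 80 added for ** values.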

In assay [2] the target is T1, human CGT (ceramide galactosyltransferase), CHO/CGT lysate. Nature of the assay: CGT enzyme assay, LC-MS/MS readout (Table 1 ranges without asterisk). The settings on record: LC-MS/MS method (range without asterisk). The method, boiled down:
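Lysate of CHO cells transfected with full-length human CGT incubated 1 h at 37 °C with compound (0.001–50 μM) in HEPES pH 7.2 with 17.5 μM UDP-galactose and C12:0 (2R-OH) ceramide substrate, 0.5% DMSO, no Tween 80. Galactosylceramide product quantified by LC-MS/MS against C12 ceramide internal standard; IC50 calculated.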

Assay [3] shares this target. The assay can be described thus: CGT enzyme assay, RapidFire/MS/MS readout with 0.01% Tween added (Table 1 ranges with two asterisks **). Particulars: CGT enzyme assay, RapidFire/MS/MS method with 0.01% Tween added (range with two asterisks **). In outline:
as §1

Structures can show the parent of a compound that is named as a salt.

`CC(C)Oc1ccc2cc(S(=O)(=O)N[C@H](C(=O)N3C4CCC3CC(N)C4)C(F)(F)c3ccc(Br)cc3)ccc2c1` (stereo partly drawn) [Compound 1-1, N-((2R)-3-(3-amino-8-azabicyclo[3.2.1]octan-8-yl)-1-(4-bromophenyl)-1,1-difluoro-3-oxopropan-2-yl)-6-isopropoxynaphthalene-2-sulfonamide]: the IC50 in assay [1] and in assay [2] was 1 to 10 µM throughout.

Turning to `NC1CC2CCC(C1)N2C(=O)[C@@H](NS(=O)(=O)c1ccc2cc(OC3CCCC3)ccc2c1)C(F)(F)c1ccc(Br)cc1` (stereo partly drawn) [Compound 5-1, N-((2R)-3-(3-amino-8-azabicyclo[3.2.1]octan-8-yl)-1-(4-bromophenyl)-1,1-difluoro-3-oxopropan-2-yl)-6-(cyclopentyloxy)naphthalene-2-sulfonamide], the IC50 in assay [3], in assay [1] and in assay [2] was below 1 µM throughout. Regarding `CC(C)Oc1ccc2cc(S(=O)(=O)N[C@H](C(=O)N3C4CCC3CC(N)C4)C(F)(F)c3ccc(Cl)cc3)ccc2c1` (stereo partly drawn) [Compound 8-1, N-((2R)-3-(3-amino-8-azabicyclo[3.2.1]octan-8-yl)-1-(4-chlorophenyl)-1,1-difluoro-3-oxopropan-2-yl)-6-isopropoxynaphthalene-2-sulfonamide trifluoroacetate], the IC50 in assay [1] and in assay [2] was 1 to 10 µM in each case. On to `CC(C)Oc1ccc2cc([C@@H](O)C(=O)N[C@@H](C(=O)N3C4CCC3CC(N)C4)C(F)(F)c3ccc(Br)cc3)ccc2c1` (stereo partly drawn) [Compound 19-4, (2R)—N-((2S)-3-(3-amino-8-azabicyclo[3.2.1]octan-8-yl)-1-(4-bromophenyl)-1,1-difluoro-3-oxopropan-2-yl)-2-hydroxy-2-(6-isopropoxynaphthalen-2-yl)acetamide trifluoroacetate], for which the IC50 in assay [1] and in assay [2] was 30 to 100 µM each time.

Regarding `NC1CC2CCC(C1)N2C(=O)[C@@H](NS(=O)(=O)c1ccc(OCCC2CCCCC2)cc1)C(F)(F)c1ccc(Br)cc1` (stereo partly drawn) [Compound 26-1, N-((2R)-3-(3-amino-8-azabicyclo[3.2.1]octan-8-yl)-1-(4-bromophenyl)-1,1-difluoro-3-oxopropan-2-yl)-4-(2-cyclohexylethoxy)benzenesulfonamide trifluoroacetate], in assay [2], the IC50 (usually the midpoint of a concentration-inhibition curve) is 1 to 10 µM. In the case of `NC1CC2CCC(C1)N2C(=O)[C@H](NS(=O)(=O)c1ccc(OCCC2CCCCC2)cc1)C(F)(F)c1ccc(Br)cc1` (stereo partly drawn) [Compound 26-2, N-((2S)-3-(3-amino-8-azabicyclo[3.2.1]octan-8-yl)-1-(4-bromophenyl)-1,1-difluoro-3-oxopropan-2-yl)-4-(2-cyclohexylethoxy)benzenesulfonamide trifluoroacetate], the IC50 in assay [2] was 30 to 100 µM. On to `CC(C)Oc1ccc2cc(S(=O)(=O)N[C@H](C(=O)N3CCC(N)CC3)C(F)(F)c3ccc(Br)cc3)ccc2c1` [Compound 27-1, (R)—N-(3-(4-aminopiperidin-1-yl)-1-(4-bromophenyl)-1,1-difluoro-3-oxopropan-2-yl)-6-isopropoxynaphthalene-2-sulfonamide trifluoroacetate], for which, in assay [2], the IC50 was 1 to 10 µM. For the compound `CC(C)Oc1ccc2cc(S(=O)(=O)N[C@@H](C(=O)N3CCC(N)CC3)C(F)(F)c3ccc(Br)cc3)ccc2c1` [Compound 27-2, (S)—N-(3-(4-aminopiperidin-1-yl)-1-(4-bromophenyl)-1,1-difluoro-3-oxopropan-2-yl)-6-isopropoxynaphthalene-2-sulfonamide trifluoroacetate], in assay [2], the IC50 lay in the range of 10 to 30 µM. Consider `CC(C)Oc1ccc2cc(S(=O)(=O)N[C@H](C(=O)N3CCC(N)CC3)C(F)(F)c3ccc(Br)cc3)ccc2c1Br` [Compound 119-1, (R)—N-(3-(4-aminopiperidin-1-yl)-1-(4-bromophenyl)-1,1-difluoro-3-oxopropan-2-yl)-5-bromo-6-isopropoxynaphthalene-2-sulfonamide], for which the concentration for half-maximal inhibition (IC50) in assay [2] lay within 1 to 10 µM.

In turn, `CC(C)Oc1ccc2cc(S(=O)(=O)N[C@@H](C(=O)N3CCC(N)CC3)C(F)(F)c3ccc(Br)cc3)ccc2c1Br` [Compound 119-2, (S)—N-(3-(4-aminopiperidin-1-yl)-1-(4-bromophenyl)-1,1-difluoro-3-oxopropan-2-yl)-5-bromo-6-isopropoxynaphthalene-2-sulfonamide] showed an IC50 in assay [2] of 10 to 30 µM. In assay [2], `NC1CC2CCC(C1)N2C(=O)C(NS(=O)(=O)c1ccc(-c2ccc(F)cc2)nc1)C(F)(F)c1ccc(Br)cc1` (stereo not shown) [Compound 199, N-(3-(3-amino-8-azabicyclo[3.2.1]octan-8-yl)-1-(4-bromophenyl)-1,1-difluoro-3-oxopropan-2-yl)-6-(4-fluorophenyl)pyridine-3-sulfonamide] had an IC50 of 30 to 100 µM.
